# From ChEMBL document CHEMBL1201862, “PubChem BioAssay data set” (2004)
#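 Cells were grown in 96-well plates and exposed to each compound for 48 hours at five concentrations; endpoints were interpolated linearly between bracketing concentrations, or set to the highest concentration if not reached. Abbreviation: GI50, concentration required for 50% inhibition of growth.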 The source made the active and inactive calls. No stated cut-off is given here; in the data, active = GI50 up to about 1.1 µM and inactive = higher.
# Tests used:
# Assay in all cases: DTP human tumour cell line panel, 48 h
# SW-620 = test system: SW-620
# SK-MEL-28 = test system: SK-MEL-28
# A498 = test system: A498
# OVCAR-4 = test system: OVCAR-4
# A549 = test system: A549
# SN12C = test system: SN12C
# SF-539 = test system: SF-539
# M14 = test system: M14
# MOLT-4 = test system: MOLT-4
# K562 = test system: K562
# OVCAR-3 = test system: OVCAR-3
# CCRF-CEM = test system: CCRF-CEM
# HT-29 = test system: HT-29
# ACHN = test system: ACHN
# HCT-15 = test system: HCT-15
# UACC-257 = test system: UACC-257
# MCF7 = test system: MCF7
# BT-549 = test system: BT-549
# T47D = test system: T47D
SMILES,GI50 (SW-620),GI50 (SK-MEL-28),GI50 (A498),GI50 (OVCAR-4),GI50 (A549),GI50 (SN12C),GI50 (SF-539),GI50 (M14),GI50 (MOLT-4),GI50 (K562),GI50 (OVCAR-3),GI50 (CCRF-CEM),GI50 (HT-29),GI50 (ACHN),GI50 (HCT-15) [µM],GI50 (UACC-257),GI50 (MCF7),GI50 (BT-549),GI50 (T47D)
O=C(Cc1nc2sc3c(c2c(=O)[nH]1)CCCC3)Nc1ccccc1,> 100 µM (inactive),> 100 µM (inactive),> 100 µM (inactive),> 100 µM (inactive),> 100 µM (inactive),> 100 µM (inactive),73.6 µM (inactive),> 100 µM (inactive),> 100 µM (inactive),> 100 µM (inactive),> 100 µM (inactive),> 100 µM (inactive),> 100 µM (inactive),> 100 µM (inactive),> 100,,,,
COC(=O)n1c(CBr)c(Br)c2ccccc21,47.2 µM (inactive),> 100 µM (inactive),,25.8 µM (inactive),40.5 µM (inactive),,31.3 µM (inactive),> 100 µM (inactive),26.2 µM (inactive),25.4 µM (inactive),20.3 µM (inactive),23.9 µM (inactive),63.7 µM (inactive),18.6 µM (inactive),42.2,39.2 µM (inactive),,,
[N-]=[N+]=NC1=NNC2(C(=O)N1)c1ccccc1-c1ccccc12,> 100 µM (inactive),> 100 µM (inactive),> 100 µM (inactive),> 100 µM (inactive),> 100 µM (inactive),> 100 µM (inactive),> 100 µM (inactive),> 100 µM (inactive),,> 100 µM (inactive),> 100 µM (inactive),> 100 µM (inactive),> 100 µM (inactive),> 100 µM (inactive),> 100,> 100 µM (inactive),72.1 µM (inactive),> 100 µM (inactive),
CCCCCCCCCCCCCCCCOCC(CC(F)(F)P(=O)(O)O)OC(C)=O (centres undefined),> 50 µM (inactive),> 50 µM (inactive),> 50 µM (inactive),,> 50 µM (inactive),> 50 µM (inactive),,> 50 µM (inactive),> 50 µM (inactive),> 50 µM (inactive),> 50 µM (inactive),,> 50 µM (inactive),> 50 µM (inactive),> 50,> 50 µM (inactive),> 50 µM (inactive),> 50 µM (inactive),
O=C(C1OC1c1ccc(Br)cc1O)C12CC3CC(CC(C3)C1)C2 (centres undefined),18.7 µM (inactive),19.4 µM (inactive),97.3 µM (inactive),26.2 µM (inactive),37.8 µM (inactive),15.6 µM (inactive),95.1 µM (inactive),18.1 µM (inactive),16.1 µM (inactive),15.4 µM (inactive),31.5 µM (inactive),23.5 µM (inactive),28.8 µM (inactive),33.9 µM (inactive),19.4,29 µM (inactive),22.3 µM (inactive),,40.8 µM (inactive)
COC(=O)CCCc1ccc2c(c1)CC1(Cc3ccccc3C1)C2,,,59.2 µM (inactive),63 µM (inactive),58.9 µM (inactive),88.5 µM (inactive),> 100 µM (inactive),44.4 µM (inactive),0.333 µM (active),,62.2 µM (inactive),29.6 µM (inactive),31 µM (inactive),75.3 µM (inactive),6.28,32.2 µM (inactive),53.6 µM (inactive),,> 100 µM (inactive)
Cc1ccc(N(C)S(=O)(=O)c2ccc([N+](=O)[O-])cc2)cc1,> 100 µM (inactive),> 100 µM (inactive),,> 100 µM (inactive),> 100 µM (inactive),> 100 µM (inactive),> 100 µM (inactive),49.8 µM (inactive),34.9 µM (inactive),41 µM (inactive),> 100 µM (inactive),> 100 µM (inactive),74.6 µM (inactive),> 100 µM (inactive),91.4,> 100 µM (inactive),> 100 µM (inactive),> 100 µM (inactive),
CCOC(=O)CCC1(CCC(=O)OCC)CCCCCCCCC(CCC(=O)OCC)(CCC(=O)OCC)C(=O)C1=O,> 100 µM (inactive),> 100 µM (inactive),> 100 µM (inactive),> 100 µM (inactive),> 100 µM (inactive),> 100 µM (inactive),> 100 µM (inactive),> 100 µM (inactive),,> 100 µM (inactive),> 100 µM (inactive),,> 100 µM (inactive),> 100 µM (inactive),> 100,> 100 µM (inactive),> 100 µM (inactive),,79.1 µM (inactive)
CN1CCC(OC(=O)Oc2ccccc2)(c2ccccc2)CC1,25.7 µM (inactive),20.6 µM (inactive),23.8 µM (inactive),18.3 µM (inactive),38.2 µM (inactive),15.4 µM (inactive),13.6 µM (inactive),15 µM (inactive),13.1 µM (inactive),24.7 µM (inactive),61.5 µM (inactive),21.8 µM (inactive),4.51 µM (inactive),34.9 µM (inactive),16.7,19.7 µM (inactive),20 µM (inactive),,26.6 µM (inactive)
CN(C)CCCNC(=O)CCNC(=O)c1cc(NC(=O)c2cc(NC(=O)c3cc(NC(=O)CCCNC(=O)c4cc(NC(=O)c5cc(NC(=O)c6nccn6C)cn5C)cn4C)cn3C)cn2C)cn1C,> 100 µM (inactive),> 100 µM (inactive),> 100 µM (inactive),> 100 µM (inactive),> 100 µM (inactive),> 100 µM (inactive),> 100 µM (inactive),> 100 µM (inactive),> 100 µM (inactive),> 100 µM (inactive),> 100 µM (inactive),> 100 µM (inactive),> 100 µM (inactive),> 100 µM (inactive),> 100,> 100 µM (inactive),> 100 µM (inactive),,
O=C(NCC(C(=O)OCc1ccccc1)C(=O)OCc1ccccc1)OCc1ccccc1,> 100 µM (inactive),> 100 µM (inactive),,,63.8 µM (inactive),> 100 µM (inactive),> 100 µM (inactive),> 100 µM (inactive),19.2 µM (inactive),60.1 µM (inactive),> 100 µM (inactive),,> 100 µM (inactive),> 100 µM (inactive),> 100,> 100 µM (inactive),49.3 µM (inactive),38.8 µM (inactive),
C=CCCCn1ccc2ccccc21,> 100 µM (inactive),> 100 µM (inactive),> 100 µM (inactive),,> 100 µM (inactive),> 100 µM (inactive),> 100 µM (inactive),> 100 µM (inactive),> 100 µM (inactive),> 100 µM (inactive),> 100 µM (inactive),> 100 µM (inactive),> 100 µM (inactive),> 100 µM (inactive),> 100,> 100 µM (inactive),,,
O=C(N/N=C1\C(=O)Nc2c(Cl)cc(Cl)cc21)C(=O)Nc1cccc(C(F)(F)F)c1,> 100 µM (inactive),> 100 µM (inactive),> 100 µM (inactive),> 100 µM (inactive),> 100 µM (inactive),> 100 µM (inactive),> 100 µM (inactive),> 100 µM (inactive),85.1 µM (inactive),,> 100 µM (inactive),> 100 µM (inactive),> 100 µM (inactive),> 100 µM (inactive),> 100,> 100 µM (inactive),> 100 µM (inactive),> 100 µM (inactive),
